Numbered stars: 1 amine (or outer) side, 2 acyl side, 3 side chain; on linkers, the order of the positions; unused ones are H or OH. Bridge positions count the residues as written; N and C are the ends. Square brackets hold non-standard residues; d marks the D form. Peptide text beside a SMILES is read from it. * marks the point of attachment. Ahppa(3S,4S) = O=C(C[C@H](O)[C@H](Cc1ccccc1)N[*:1])[*:2]; Butanoyl(3,3-Me2) = CC(C)(C)CC(=O)*; Isopropoxycarbonyl = CC(C)OC(=O)*; CH2CH2 = C(C[*:2])[*:1]

Sequence of plasmepsin II (PMII) (P46925 125-453): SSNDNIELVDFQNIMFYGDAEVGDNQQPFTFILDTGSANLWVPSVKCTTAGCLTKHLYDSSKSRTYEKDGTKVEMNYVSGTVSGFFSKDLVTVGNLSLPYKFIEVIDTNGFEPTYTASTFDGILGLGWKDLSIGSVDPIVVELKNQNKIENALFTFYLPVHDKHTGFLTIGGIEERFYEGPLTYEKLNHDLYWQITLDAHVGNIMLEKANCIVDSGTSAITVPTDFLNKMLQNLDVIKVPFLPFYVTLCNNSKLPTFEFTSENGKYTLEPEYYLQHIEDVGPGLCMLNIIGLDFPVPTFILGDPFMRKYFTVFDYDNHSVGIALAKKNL

The target in the first assay is plasmepsin I (PMI) (Plasmodium falciparum, UniProt P39898). Put plainly: biochemical.
Sequence of plasmepsin I (PMI) (P39898 124-452): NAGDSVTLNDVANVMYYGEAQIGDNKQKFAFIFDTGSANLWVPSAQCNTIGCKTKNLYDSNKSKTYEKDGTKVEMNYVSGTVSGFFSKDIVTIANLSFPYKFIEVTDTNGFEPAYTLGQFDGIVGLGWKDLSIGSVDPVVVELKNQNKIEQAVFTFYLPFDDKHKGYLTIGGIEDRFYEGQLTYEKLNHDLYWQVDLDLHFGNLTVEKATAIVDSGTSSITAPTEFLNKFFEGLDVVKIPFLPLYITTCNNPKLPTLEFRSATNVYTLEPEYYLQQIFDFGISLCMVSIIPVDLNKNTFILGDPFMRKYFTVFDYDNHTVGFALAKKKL
Conditions: not given
For `CC(C)C[C@H](NC(=O)[C@@H](NC(=O)C[C@H](O)[C@@H]1CCCCNC(=O)CC[C@H](NC(=O)CC(C)(C)C)C(=O)N[C@@H](C(C)C)C(=O)N1)C(C)C)C(=O)NCC(N)=O` [drawing 40], the Ki was 22 nM.
In the case of `CC(C)C[C@H](NC(=O)[C@H](C)NC(=O)C[C@H](O)[C@H](Cc1ccccc1)NC(=O)[C@@H](NC(=O)c1ccccn1)C(C)C)C(N)=O` [drawing 42], the Ki is 16 nM.

Another assay concerns the target plasmepsin II (PMII) (Plasmodium falciparum, UniProt P46925). The experiment in a line: biochemical.
Conditions: not given
Here is the method:
(§1) Typically, 485 μl of 50 mM Gly-HC1 buffer, pH 3.5 (in the case of cathepsin D), or 100 mM sodium acetate buffer, pH 5.0 (in the case of plasmepsin 2), was mixed with 5 μl of DMSO and 5 μl of titrated protease (final concentration 0.2-10 nM) and incubated 3 min at 37° C. The reaction was initiated by the addition of 5 μl of substrate stock solution in DMSO. Increase in fluorescence intensity at the emission maximum of 487 nm (excitation wavelength was 349 nm) was monitored as a function of time using an Aminco Bowman-2 luminescence spectrometer (SLM Instruments, Inc.).
(§2) The initial rate of hydrolysis was calculated by a second degree polynomial fit using SLM AB2 2.0 operating software. Kinetic parameters were determined by nonlinear regression fitting of initial rate versus substrate concentration data to the Michaelis-Menten equation using the program Enzfitter version 1.05 (Leatherbarrow, R. J. 1987. Enzfitter, a program for non-linear regression analysis. Elsevier Scientific, New York).
For inhibition studies inhibitors were prepared as stock solutions at different concentrations in DMSO. In a typical experiment 485 μl of the appropriate buffer was mixed with 5 μl of inhibitor stock solution and 5 μ of titrated protease (final concentration 0.2-10 nM) and preincubated 3 min at 37° C. The reaction was initiated by the addition of 5 μl of substrate stock solution in DMSO. […]
`CC(C)C[C@H](NC(=O)[C@@H](NC(=O)C[C@H](O)[C@@H]1CCCCNC(=O)CC[C@H](NC(=O)CC(C)(C)C)C(=O)N[C@@H](C(C)C)C(=O)N1)C(C)C)C(=O)NCC(N)=O` [drawing 40] came in with a Ki of 0.2 nM.
Turning to `CC(C)C[C@H](NC(=O)[C@H](C)NC(=O)C[C@H](O)[C@H](Cc1ccccc1)NC(=O)[C@@H](NC(=O)c1ccccn1)C(C)C)C(N)=O` [drawing 42], the Ki is 0.9 nM.

The next assay deals with cathepsin D (Homo sapiens, UniProt P07339). The experiment in a line: cathepsin D inhibition assay with fluorogenic substrate (tight-binding kinetics).
Sequence of cathepsin D (P07339 65-412): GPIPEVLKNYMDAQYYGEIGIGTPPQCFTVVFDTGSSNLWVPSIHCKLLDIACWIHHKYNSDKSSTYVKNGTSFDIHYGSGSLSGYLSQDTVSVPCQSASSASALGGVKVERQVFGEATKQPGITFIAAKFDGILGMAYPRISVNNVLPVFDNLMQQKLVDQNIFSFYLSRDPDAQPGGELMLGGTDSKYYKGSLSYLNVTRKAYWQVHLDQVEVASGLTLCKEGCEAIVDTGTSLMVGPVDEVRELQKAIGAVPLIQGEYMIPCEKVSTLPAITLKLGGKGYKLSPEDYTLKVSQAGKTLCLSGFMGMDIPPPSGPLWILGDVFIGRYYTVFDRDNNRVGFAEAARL
Conditions: not given
It counts as biochemical. As to the method: as §1, §2
For inhibition studies inhibitors were prepared as stock solutions at different concentrations in DMSO. In a typical experiment 485 μl of the appropriate buffer was mixed with 5 μl of inhibitor stock solution and 5 μ of titrated protease (final concentration 0.2-10 nM) and preincubated 3 min at 37° C. The reaction was initiated by the addition of 5 μl of substrate stock solution in DMSO. For data analysis the mathematical model for tight-binding inhibitors (Williams, J. W., and Morrison, J. F. Methods Enzymol. 63:437 (1979)) was used. The data were fitted by nonlinear regression analysis to the equation
V=V0 /2Et ({[K1 (1+S/Km)+It -Et ]^2
+4Ki (1+S/Km)Et }^1/2 -[Ki (1+S/Km)+It
Molecule `CCCCCNC(=O)[C@@H](NC(=O)C[C@H](O)[C@H](Cc1ccccc1)NC(=O)CCCC)C(C)C` registered a Ki of 400 nM.
For the molecule `CC(C)C[C@H](NC(=O)[C@@H](NC(=O)C[C@H](O)[C@H](Cc1ccccc1)NC(=O)[C@H](CC(=O)O)NC(=O)[C@@H](NC(=O)CC(C)(C)C)C(C)C)C(C)C)C(=O)NCC(N)=O` [(10), Tha--Val--Asp--Pst--Val--Leu--Gly--NH2] ({Butanoyl(3,3-Me2)}-VD[Ahppa(3S,4S)]VLG-NH2), affinity was put at a Ki of 2.1 nM.
For the molecule `CC(C)[C@@H]1NC(=O)C[C@H](O)[C@H](Cc2ccccc2)NC(=O)[C@@H](NC(=O)[C@@H](NC(=O)CC(C)(C)C)C(C)C)CSCCCCSC[C@@H](C(=O)NCC(N)=O)NC1=O`, the Ki was 0.1 nM.
On to `CC(C)C[C@H](NC(=O)[C@@H](NC(=O)C[C@H](O)[C@@H]1CCCCNC(=O)C[C@H](NC(=O)CC(C)(C)C)C(=O)N[C@@H](C(C)C)C(=O)N1)C(C)C)C(=O)NCC(N)=O`, for which the affinity corresponds to a Ki of 2.5 nM.
`CC(C)C[C@H](NC(=O)[C@H](C)NC(=O)C[C@H](O)[C@H](Cc1ccccc1)NC(=O)[C@@H](NC(=O)Cc1ccccn1)C(C)C)C(N)=O` registered a Ki of 20 nM.
As for `CC(C)C[C@H](NC(=O)[C@H](C)NC(=O)C[C@H](O)[C@H](Cc1ccccc1)NC(=O)[C@@H](NC(=O)[C@@H](NC(=O)OC(C)C)C(C)C)C(C)C)C(N)=O` (Isopropoxycarbonyl-VV[Ahppa(3S,4S)]AL-NH2), the Ki turned out to be 0.24 nM.
`CC(C)[C@@H]1NC(=O)C[C@H](O)[C@H](Cc2ccccc2)NC(=O)[C@@H](NC(=O)[C@@H](NC(=O)CC(C)(C)C)C(C)C)CCC(=O)NCCCC[C@@H](C(=O)NCC(N)=O)NC1=O` ({Butanoyl(3,3-Me2)}-VE[Ahppa(3S,4S)]VKG-NH2; lactam 2-5) displayed a Ki of 2.3 nM.
On the same count and under the same terms, in the case of `CC(C)C[C@H](NC(=O)[C@@H](NC(=O)C[C@H](O)[C@@H]1CCCCNC(=O)CC[C@H](NC(=O)CC(C)(C)C)C(=O)N[C@@H](C(C)C)C(=O)N1)C(C)C)C(=O)NCC(N)=O` [drawing 29] it was 0.26 nM.
As for `CC(C)C[C@H](NC(=O)[C@H](C)NC(=O)C[C@H](O)[C@H](Cc1ccccc1)NC(=O)[C@@H](NC(=O)OC(C)C)C(C)C)C(N)=O`, the IC50 was 20 nM.
`CC(C)[C@@H]1NC(=O)C[C@H](O)[C@H](Cc2ccccc2)NC(=O)[C@@H](NC(=O)[C@@H](NC(=O)CC(C)(C)C)C(C)C)CSSC[C@@H](C(=O)NCC(N)=O)NC1=O` ({Butanoyl(3,3-Me2)}-VC[Ahppa(3S,4S)]VCG-NH2; disulfide 2-5): the Ki was 150 nM.
For `CC(C)[C@@H]1NC(=O)C[C@H](O)[C@H](Cc2ccccc2)NC(=O)[C@@H](NC(=O)[C@@H](NC(=O)CC(C)(C)C)C(C)C)CSCCCSC[C@@H](C(=O)NCC(N)=O)NC1=O`, affinity was put at a Ki of 1.5 nM.
Molecule `CC(C)[C@@H]1NC(=O)C[C@H](O)[C@H](Cc2ccccc2)NC(=O)[C@@H](NC(=O)[C@@H](NC(=O)CC(C)(C)C)C(C)C)CSCCSC[C@@H](C(=O)NCC(N)=O)NC1=O` ({Butanoyl(3,3-Me2)}-VC[Ahppa(3S,4S)]VCG-NH2; linker 2-5 via CH2CH2) had a Ki of 1.9 nM.
In the case of `CC(C)[C@@H]1NC(=O)C[C@H](O)[C@H](Cc2ccccc2)NC(=O)[C@@H](NC(=O)[C@@H](NC(=O)CC(C)(C)C)C(C)C)CCCCNC(=O)CC[C@@H](C(=O)NCC(N)=O)NC1=O` ({Butanoyl(3,3-Me2)}-VK[Ahppa(3S,4S)]VEG-NH2; lactam 2-5), affinity was put at a Ki of 1.4 nM.
With `CC(C)C[C@H](NC(=O)[C@H](C)NC(=O)C[C@H](O)[C@H](Cc1ccccc1)NC(=O)[C@@H](NC(=O)CN(C)C)C(C)C)C(N)=O`, the IC50 was found to be 1000 nM.

The same assay, now with this note: target named only in b168/b175 (cathepsin D), elsewhere implied; read-out: Ki.
In the case of `CC(C)C[C@H](NC(=O)[C@H](C)NC(=O)C[C@H](O)[C@H](Cc1ccccc1)NC(=O)[C@@H](NC(=O)c1ccccn1)C(C)C)C(N)=O` [drawing 15], the Ki stood at 21 nM.

A word on the Ki: it is the dissociation constant of the complex between target and ligand, obtained from inhibition or displacement. What is called IC50 is the concentration needed to halve the response being measured.
